One assay has as its target T1, recombinant CD81-LEL (Homo sapiens, UniProt P60033).
T1 construct: the large extracellular loop of CD81 (CD81-LEL); GST; His; Shoshana Levy Lab, Stanford (gift)
T1 sequence (P60033 113-201 limits assumed): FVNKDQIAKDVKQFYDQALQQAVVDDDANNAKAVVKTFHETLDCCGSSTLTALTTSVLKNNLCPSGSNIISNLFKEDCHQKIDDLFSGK
Description: SPR (Biacore T100) binding of additional ligands to immobilized CD81-LEL (Example 6). As to conditions: Table E, ligand 200 uM in PBS-1% DMSO. How it is done: SPR analysis was performed using a Biacore T100 workstation (GE Healthcare, NJ, USA). A recombinant form of the CD81-LEL protein with a GST-tag (Shoshana Levy Lab-Stanford) was used to determine the binding affinities of the ligands in the above list. 10 uM CD81-LEL-His diluted into 10 mM sodium acetate buffer pH 4.5 was immobilized for […] at a flow speed of 5 ul/min onto a CM5 sensor chip using amine coupling (EDC-NHS). Approximately 20,000 RU of protein were immobilized on the chip. The ligands were prepared as 200 uM solutions in PBS-1% DMSO (the running buffer) and they were introduced to the protein using a pre-programmed 3 min association and 1 min dissociation interval. Ligands that bind have a positive RU (response units) number and the strength of binding to the CD81 protein is related to the magnitude of the RU number; the larger the number the more binding.

Assay [1] deals with T2, native CD81 on Raji cells (Homo sapiens, UniProt P60033).
T2 construct: endogenous in cells; host or cells: Raji (human B cell line)
T2 sequence (P60033 1-236): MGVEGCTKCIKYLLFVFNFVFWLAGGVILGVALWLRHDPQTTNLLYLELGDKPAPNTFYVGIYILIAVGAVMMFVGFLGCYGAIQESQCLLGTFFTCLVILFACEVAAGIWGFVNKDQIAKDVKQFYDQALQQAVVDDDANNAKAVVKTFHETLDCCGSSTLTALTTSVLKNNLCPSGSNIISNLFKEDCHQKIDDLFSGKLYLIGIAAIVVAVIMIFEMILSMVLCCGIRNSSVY
Description: Competition assay: inhibition of FITC-labeled JS-81 anti-CD81 antibody binding to native CD81 on live Raji cells (flow cytometry). In kind it is cell-based. An excerpt:
A subset of these ligands and some of those listed in the patent have been tested to identify those ligands that bind to the correct region of the CD81 protein and for binding to native CD81 on living cells (a Raji cell line). This assay tests three concentrations of the ligand to determine if the ligand is capable of inhibiting the binding of an antibody called JS-81. This antibody is known to bind to the region of the CD81 protein we have targeted. If the ligand decreases JS-81 binding as you increase the concentration of the ligand, it is 1) binding to native CD81 on the Raji cells and 2) it is binding to the correct region of the protein.
For antibody neutralization assay Raji cells were used, a human B cell line that expressed high amounts of CD81 on the surface (data not shown). Cells were grown in RPMI medium (10% FCS, 1% penicillin/streptomycin, 1% L-glutamine, 1% non-essential amino acids, 1% sodium pyruvate, pH 7.4, at 37° C. with 5% CO2). 2×10^5 cells were incubated with or without different concentrations (50 μM, 100 μM, 400 μM and 1 mM) of indicated inhibitor for 20 min at room temperature, subsequently 1 ul (16 ng/μl) of FITC-labeled anti CD81 antibody (BD Pharmingen, 551108) was added to the cells and incubated for 20 min (antibody titration was performed to obtain a working dilution range, data not shown). Cells were washed and analyzed by flow cytometry using fluorescence-activated cell sorting (FACS) (BD FACSCalibur, software: Cell Quest Pro). Mean Fluorescence Intensity MFI was calculated using Flowjo software (TreesStar, www.flowjo.com).
For orientation: In flow cytometry, cells or beads pass a laser one at a time.

Structures are written as SMILES.

Take `Cc1ccc(-c2cc(C(=O)O)c3ccccc3n2)c(C)c1` [Ligand 25678]: at recombinant CD81-LEL, the “Binding (RU)” value worked out at 11.1 RU. Moreover, the “Inhibition of JS-81 Binding (%)” value in assay [1] (50 μM ligand) is given as 0%; in assay [1] (100 μM ligand), 4%; in assay [1] (400 μM ligand), 19%. `COc1cc(/N=N/c2ccccc2C(=O)O)ccc1O` [Ligand 153172]: the “Binding (RU)” value at recombinant CD81-LEL worked out at 2.6 RU. In the case of `N=C(N)Nc1ccc(NC(=N)N)cc1` [Ligand 20586], the “Binding (RU)” value on recombinant CD81-LEL is 17.4 RU. Consider `O=C(O)Cn1ccc2ccccc21` [Ligand 75866], for which, on recombinant CD81-LEL, the “Binding (RU)” value is listed as 18.9 RU. The “Inhibition of JS-81 Binding (%)” value in assay [1] (50 μM ligand) is recorded as 0%; in assay [1] (100 μM ligand) it was 1%; in assay [1] (400 μM ligand), 31%.

As for `Cn1ncc2c(Nc3ccc(Br)cc3)nc(Nc3ccc(Br)cc3)nc21` [Ligand 11667], at recombinant CD81-LEL, the “Binding (RU)” value was 9.6 RU. The same measure, in the same setting: next, `N=C(N)NC(=S)Nc1ccc(Cl)cc1` [Ligand 403374]: 12.6 RU; `CC(C)(C)c1ccc(OCC(=O)O)cc1` [Ligand 8481]: 1.8 RU; `CCCCNCC1CCCO1` (stereo not shown) [Ligand 97538]: 4.2 RU.

As to `NS(=O)(=O)c1ccc(/N=N/c2c(O)c(C(=O)O)cc3ccccc23)cc1` [Ligand 134137], the “Binding (RU)” value at recombinant CD81-LEL turned out to be 10 RU. Also, the “Inhibition of JS-81 Binding (%)” value in assay [1] (50 μM ligand) is given as 0%; in assay [1] (100 μM ligand), 6%; in assay [1] (400 μM ligand), 26%. With `O=C(O)/C(=C/c1ccccc1)c1ccccc1` [Ligand 40614], the “Binding (RU)” value at recombinant CD81-LEL was determined as 50.8 RU. In addition, the “Inhibition of JS-81 Binding (%)” value in assay [1] (50 μM ligand) worked out at 0%; in assay [1] (100 μM ligand), 8%; in assay [1] (400 μM ligand), 26%. As to `O=C(O)c1cc(O)ccc1/N=N/c1ccccc1` [Ligand 106863], the “Binding (RU)” value at recombinant CD81-LEL worked out at 11.6 RU. Moreover, the “Inhibition of JS-81 Binding (%)” value in assay [1] (50 μM ligand) was 0%; in assay [1] (100 μM ligand), 0%; in assay [1] (400 μM ligand), 19%. As a reminder, the inhibition is how much of the control response was suppressed. A low value points to a weak effect. Take `NC(=O)c1ccc2c(c1)S(=O)(=O)c1ccccc1C2=O` [Ligand 689002, 9-Oxo-9H-thioxanthene-3-carboxamide 10,10-dioxide]: in assay [1] (50 μM ligand), the inhibition at 50 µM was found to be 0%. In assay [1] (100 μM ligand), this compound had an inhibition at 100 µM of 0%. Besides, in assay [1] (400 μM ligand), the inhibition at 400 µM came out at 14%. With `CC(OC(=O)Nc1cccc(Cl)c1)C(=O)O` (stereo not shown) [Ligand 73170], the “Binding (RU)” value on recombinant CD81-LEL worked out at 4.3 RU. On to `NC(=O)NC(=O)c1nccnc1C(=O)O` [Ligand 117922], for which, at recombinant CD81-LEL, the “Binding (RU)” value amounted to 10.2 RU. Further, the figures for the “Inhibition of JS-81 Binding (%)” value in assay [1] (50 μM ligand), in assay [1] (100 μM ligand) and in assay [1] (400 μM ligand) were 0%, 12% and 26%, respectively. Regarding `Cc1cc(N2CCN(C)CC2)n2nc(-c3ccc(Cl)cc3)nc2n1` [Ligand 252359], the “Binding (RU)” value at recombinant CD81-LEL is 9.3 RU. Still for that read-out and setting: next, `Cc1ccc(NC(=S)NC(=O)c2ccccc2)cc1NC(=S)NC(=O)c1ccccc1` [Ligand 5856]: 2.7 RU.

Consider `CCCCCCC(C)OC(=O)c1ccccc1C(=O)O` (stereo not shown) [Ligand 524615], for which the “Binding (RU)” value on recombinant CD81-LEL amounted to 4.1 RU. Still for that read-out and setting: next, `Cc1ccc(C)c(C(=O)CCC(=O)O)c1` [Ligand 215276]: 7.4 RU; `O=C(O)C(Cc1ccccc1-c1ccccc1)C(=O)O` [Ligand 94914]: 7.2 RU.

On to `COc1cccc(C2Nc3cccc4cccc(c34)N2)c1` [Ligand 76823], for which the “Binding (RU)” value at recombinant CD81-LEL worked out at 5.4 RU. In the case of `O=C(O)/C=C\C(=O)Nc1cccc2cccnc12` [Ligand 144958], the “Binding (RU)” value on recombinant CD81-LEL came out at 4.1 RU. For the same compound, the “Inhibition of JS-81 Binding (%)” value in assay [1] (50 μM ligand) is reported as 0%; in assay [1] (100 μM ligand), 54%; in assay [1] (400 μM ligand), 12%. Take `O=C(Nc1ccc(Br)c2ccccc12)c1ccc2ccccc2c1O` [Ligand 601359]: the “Binding (RU)” value on recombinant CD81-LEL came out at 4.1 RU. The same measure, in the same setting: next, `CC1=CC(=O)CC(C)(C)C1(O)/C=C/C(C)=C/C(=O)O` (stereo not shown) [Ligand 148832]: 2.9 RU.

For the compound `Cc1cc(C)c(N)c(C(=O)O)c1` [Ligand 90444], the “Binding (RU)” value on recombinant CD81-LEL amounted to 13.1 RU. Also, the “Inhibition of JS-81 Binding (%)” value in assay [1] (50 μM ligand) came out at 0%; in assay [1] (100 μM ligand), 0%; in assay [1] (400 μM ligand), 24%.

As for `CCNc1ccccc1C(=O)O` [Ligand 16162], the “Binding (RU)” value at recombinant CD81-LEL is on record as 5.1 RU. As for `O=C(O)c1ccccc1NCc1ccco1` [Ligand 331931], the “Binding (RU)” value on recombinant CD81-LEL was 5.9 RU. For `O=c1[nH]c2ccccc2n1C1=CCNCC1` [Ligand 88883], at recombinant CD81-LEL, the “Binding (RU)” value is 5.4 RU. On the same count and under the same terms, next, `O=C(O)c1ccc(OCCOc2ccccc2)cc1` [Ligand 120631]: 8.3 RU.

Turning to `CCC(C)(C)c1ccc(Oc2cccc(C(=O)O)c2)cc1` [Ligand 7962], the “Binding (RU)” value on recombinant CD81-LEL was determined as 14.7 RU. For the same compound, the “Inhibition of JS-81 Binding (%)” value in assay [1] (50 μM ligand) was 0%; in assay [1] (100 μM ligand) it was 0%; in assay [1] (400 μM ligand) it was 19%. Regarding `CCOc1cccc2cc(C(N)=O)c(=N)oc12` [Ligand 263636], the “Binding (RU)” value on recombinant CD81-LEL is on record as 3.4 RU. As for `C=CCc1ccccc1OCC(=O)O` [Ligand 60239], the “Binding (RU)” value at recombinant CD81-LEL was 5.8 RU.

Take `O=C(O)c1ccc(N2CCCCC2)cc1O` [Ligand 23895]: the “Binding (RU)” value on recombinant CD81-LEL was 10 RU. In addition, the “Inhibition of JS-81 Binding (%)” value in assay [1] (50 μM ligand) is given as 0%; in assay [1] (100 μM ligand), 0%; in assay [1] (400 μM ligand), 17%. Turning to `CC1CCCC(CC(=O)O)(CC(=O)O)C1` (stereo not shown) [Ligand 3001], on recombinant CD81-LEL, the “Binding (RU)” value was 4.6 RU.

For the compound `CC(C)Oc1ccc(C(=O)O)cc1` [Ligand 16646], at recombinant CD81-LEL, the “Binding (RU)” value is given as 4.9 RU.

On to `c1cncc(C2CCCCN2)c1` (stereo not shown) [Ligand 87504], for which the “Binding (RU)” value at recombinant CD81-LEL turned out to be 57.9 RU. Moreover, the results for the “Inhibition of JS-81 Binding (%)” value in assay [1] (50 μM ligand), in assay [1] (100 μM ligand) and in assay [1] (400 μM ligand) were 0%, 6% and 20%, respectively. In the case of `O=C(O)c1[nH]c(=O)[nH]c(=O)c1F` [Ligand 31712], on recombinant CD81-LEL, the “Binding (RU)” value stood at 4.1 RU. In the case of `CNC1(C(N)=O)CCNCC1` [Ligand 75846], the “Inhibition of JS-81 Binding (%)” value in assay [1] (50 μM ligand) was 0%; in assay [1] (100 μM ligand) it was 0%; in assay [1] (400 μM ligand) it was 52%. Consider `CCNc1nc(Cl)nc(-c2cn(-c3ccccc3)c3ccccc23)n1` [Ligand 142446], for which the “Binding (RU)” value on recombinant CD81-LEL was 2.5 RU. `O=C(O)CCc1cccnc1` [Ligand 89720]: the “Binding (RU)” value on recombinant CD81-LEL came to 9.2 RU.
